Counter-ions that a name gives are not always drawn.
System: human breast cancer cell line T-47D
Test: Caspase cascade activation (DEVD-R110 fluorogenic substrate) in T-47D cells
Type: cell-based
Conditions: Homo sapiens, T47D, 24 h, T47D cells, 24 h; read-out: Caspase activation Potency EC50 T47D (24 h)
Outline: (§1)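 Cells were exposed to compound at 0.016 to 10 μM final for 24 h or 48 h at 37 °C. They were then lysed with 14 μM N-(Ac-DEVD)-N′-ethoxycarbonyl-R110 in lysolecithin/DTT/PIPES buffer pH 7.2 for 3 h at room temperature (ex 485/em 530 nm). EC50 came from a sigmoidal fit of net RFU relative to untreated control.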

Row | SMILES | EC50 [nM]
1 | Oc1cc(O)cc(Nc2ncnc3ccsc23)c1 [Example 43, N-(3,5-Dihydroxyphenyl)thieno[3,2-d]pyrimidin-4-amine] | > 10000
2 | COc1cccc(OC)c1Nc1ncnc2ccsc12 [Example 62, N-(2,6-Dimethoxyphenyl)thieno[3,2-d]pyrimidin-4-amine] | > 10000
3 | COc1ccc(Nc2ncnc3ccsc23)c(OC)c1 [Example 8, N-(2,4-Dimethoxyphenyl)thieno[3,2-d]pyrimidin-4-amine hydrochloride] | > 10000
4 | COc1ccc(Nc2ncnc3ccsc23)cc1OC [Example 14, N-(3,4-Dimethoxyphenyl)thieno[3,2-d]pyrimidin-4-amine hydrochloride] | 1810

Same assay, conditions: Homo sapiens, T47D, 48 h, T-47D cells, 48 h; read-out: Caspase activation Potency EC50 T-47D (48 h)

Row | SMILES | EC50 [nM]
5 | COc1cc(N=[N+]=[N-])cc(Nc2ncnc3ccsc23)c1 [Example 71, N-(3-Azido-5-methoxyphenyl)thieno[3,2-d]pyrimidin-4-amine] | 209
6 | COc1cc(Nc2ncnc3ccsc23)cc(N(C)C)c1 [Example 69, N-(3-Dimethylamino-5-methoxyphenyl)thieno[3,2-d]pyrimidin-4-amine] | 191
7 | Oc1cc(O)cc(Nc2ncnc3ccsc23)c1 [Example 43, N-(3,5-Dihydroxyphenyl)thieno[3,2-d]pyrimidin-4-amine] | > 10000
8 | COc1cccc(OC)c1Nc1ncnc2ccsc12 [Example 62, N-(2,6-Dimethoxyphenyl)thieno[3,2-d]pyrimidin-4-amine] | > 10000
9 | COc1ccc(Nc2ncnc3ccsc23)c(OC)c1 [Example 8, N-(2,4-Dimethoxyphenyl)thieno[3,2-d]pyrimidin-4-amine hydrochloride] | > 10000
10 | COc1ccc(Nc2ncnc3ccsc23)cc1OC [Example 14, N-(3,4-Dimethoxyphenyl)thieno[3,2-d]pyrimidin-4-amine hydrochloride] | 2020

System: human lung cancer cell line H1299
Test: Caspase cascade activation in H1299 cells
Type: cell-based
Conditions: NCI-H1299, 24 h, read-out: Caspase activation Potency EC50 H1299 (24 h)
Outline: as §1

Row | SMILES | EC50 [nM]
11 | Oc1cc(O)cc(Nc2ncnc3ccsc23)c1 [Example 43, N-(3,5-Dihydroxyphenyl)thieno[3,2-d]pyrimidin-4-amine] | > 10000
12 | COc1cccc(OC)c1Nc1ncnc2ccsc12 [Example 62, N-(2,6-Dimethoxyphenyl)thieno[3,2-d]pyrimidin-4-amine] | > 10000
13 | COc1ccc(Nc2ncnc3ccsc23)c(OC)c1 [Example 8, N-(2,4-Dimethoxyphenyl)thieno[3,2-d]pyrimidin-4-amine hydrochloride] | > 10000
14 | COc1ccc(Nc2ncnc3ccsc23)cc1OC [Example 14, N-(3,4-Dimethoxyphenyl)thieno[3,2-d]pyrimidin-4-amine hydrochloride] | > 10000

System: human hepatocellular carcinoma cell line SNU398
Test: Caspase cascade activation in SNU398 cells
Type: cell-based
Conditions: Homo sapiens, SNU-398, 48 h, read-out: Caspase activation Potency EC50 SNU398 (48 h)
Outline: as §1

Row | SMILES | EC50 [nM]
15 | COc1cc(N=[N+]=[N-])cc(Nc2ncnc3ccsc23)c1 [Example 71, N-(3-Azido-5-methoxyphenyl)thieno[3,2-d]pyrimidin-4-amine] | 262
16 | COc1cc(Nc2ncnc3ccsc23)cc(N(C)C)c1 [Example 69, N-(3-Dimethylamino-5-methoxyphenyl)thieno[3,2-d]pyrimidin-4-amine] | 251
17 | Oc1cc(O)cc(Nc2ncnc3ccsc23)c1 [Example 43, N-(3,5-Dihydroxyphenyl)thieno[3,2-d]pyrimidin-4-amine] | > 10000
18 | COc1cccc(OC)c1Nc1ncnc2ccsc12 [Example 62, N-(2,6-Dimethoxyphenyl)thieno[3,2-d]pyrimidin-4-amine] | > 10000
19 | COc1ccc(Nc2ncnc3ccsc23)c(OC)c1 [Example 8, N-(2,4-Dimethoxyphenyl)thieno[3,2-d]pyrimidin-4-amine hydrochloride] | > 10000
20 | COc1ccc(Nc2ncnc3ccsc23)cc1OC [Example 14, N-(3,4-Dimethoxyphenyl)thieno[3,2-d]pyrimidin-4-amine hydrochloride] | > 10000

System: human colon carcinoma cell line HCT116
Test: Caspase cascade activation in HCT116 cells
Type: cell-based
Conditions: Homo sapiens, HCT-116, 48 h, read-out: Caspase activation Potency EC50 HCT116 (48 h)
Outline: as §1

Row | SMILES | EC50 [nM]
21 | COc1cc(N=[N+]=[N-])cc(Nc2ncnc3ccsc23)c1 [Example 71, N-(3-Azido-5-methoxyphenyl)thieno[3,2-d]pyrimidin-4-amine] | 144
22 | COc1cc(Nc2ncnc3ccsc23)cc(N(C)C)c1 [Example 69, N-(3-Dimethylamino-5-methoxyphenyl)thieno[3,2-d]pyrimidin-4-amine] | 323
23 | Oc1cc(O)cc(Nc2ncnc3ccsc23)c1 [Example 43, N-(3,5-Dihydroxyphenyl)thieno[3,2-d]pyrimidin-4-amine] | > 10000
24 | COc1cccc(OC)c1Nc1ncnc2ccsc12 [Example 62, N-(2,6-Dimethoxyphenyl)thieno[3,2-d]pyrimidin-4-amine] | > 10000
25 | COc1ccc(Nc2ncnc3ccsc23)c(OC)c1 [Example 8, N-(2,4-Dimethoxyphenyl)thieno[3,2-d]pyrimidin-4-amine hydrochloride] | > 10000
26 | COc1ccc(Nc2ncnc3ccsc23)cc1OC [Example 14, N-(3,4-Dimethoxyphenyl)thieno[3,2-d]pyrimidin-4-amine hydrochloride] | > 10000

System: human breast cancer cell line T-47D
Test: Inhibition of cell proliferation (GI50, CellTiter-Glo) in T-47D cells
Type: cell-based
Conditions: Table IV, T47D cells, read-out: GI50 in Multi-Cancer Cells T47D
Experimental: (§2) Human breast cancer cell lines T-47D, MX-1 and MDAMB435, human colon cancer cell line HT29, and human lung cancer cell line H1299 were grown and harvested as in Example 75. An aliquot of […] of cells (4.4×10^4 cells/mL) was added to a well of a 96-well microtiter plate containing 5 μL of a 10% DMSO in RPMI-1640 media solution containing 10 nM to 100 μM of N-(2,5-dimethoxyphenyl)-2-methylthieno[3,2-d]pyrimidin-4-amine (1 nM to 10 μM final). An aliquot of 45 μL of cells was added to a well of a 96-well microtiter plate containing 5 μL of a 10% DMSO in RPMI-1640 media solution without compound as the control sample for maximal cell proliferation (Lmax). The samples were mixed by agitation and then incubated at 37° C. for 48 h in a 5% CO2-95% humidity incubator. After incubation, the samples were removed from the incubator and 25 μL of CellTiter-Glo™ reagent (Promega) was added. The samples were mixed by agitation and incubated at room temperature for 10-15 min. Plates were then read using a luminescent plate reader (Model SPECTRAfluor Plus, Tecan) to give Ltest values.
(§3) Baseline for GI50 (dose for 50% inhibition of cell proliferation) of initial cell numbers was determined by adding an aliquot of 45 μL of cells or 45 μL of media, respectively, to wells of a 96-well microtiter plate containing 5 μL of a 10% DMSO in RPMI-1640 media solution. The samples were mixed by agitation and then incubated at 37° C. for 0.5 h in a 5% CO2-95% humidity incubator. After incubation, the samples were removed from the incubator and 25 μL of CellTiter-Glo™ reagent (Promega) was added. The samples were mixed by agitation and incubated at 37° C. for 10-15 min at room temperature in a 5% CO2-95% humidity incubator. Fluorescence was read as above, (LStart) defining luminescence for initial cell number used as baseline in GI50 determinations.
(§4) GI50 (dose for 50% inhibition of cell proliferation) is the concentration where [(LTest−Lstart)/(LMax−Lstart)]=0.5.

Row | SMILES | GI50 [nM]
27 | COc1cc(N=[N+]=[N-])cc(Nc2ncnc3ccsc23)c1 [Example 71, N-(3-Azido-5-methoxyphenyl)thieno[3,2-d]pyrimidin-4-amine] | 208
28 | COc1cc(Nc2ncnc3ccsc23)cc(N(C)C)c1 [Example 69, N-(3-Dimethylamino-5-methoxyphenyl)thieno[3,2-d]pyrimidin-4-amine] | 133

System: human breast cancer cell line MX-1
Test: Inhibition of cell proliferation (GI50) in MX-1 cells
Type: cell-based
Conditions: Table IV, MX1 cells, read-out: GI50 in Multi-Cancer Cells MX1
Experimental: as §2, §3, §4

Row | SMILES | GI50 [nM]
29 | COc1cc(N=[N+]=[N-])cc(Nc2ncnc3ccsc23)c1 [Example 71, N-(3-Azido-5-methoxyphenyl)thieno[3,2-d]pyrimidin-4-amine] | 1670
30 | COc1cc(Nc2ncnc3ccsc23)cc(N(C)C)c1 [Example 69, N-(3-Dimethylamino-5-methoxyphenyl)thieno[3,2-d]pyrimidin-4-amine] | 9850

System: human breast cancer cell line MDAMB435
Test: Inhibition of cell proliferation (GI50) in MDAMB435 cells
Type: cell-based
Conditions: MDA-MB-435, Table IV, read-out: GI50 in Multi-Cancer Cells MDAMB435
Experimental: as §2, §3, §4

Row | SMILES | GI50 [nM]
31 | COc1cc(N=[N+]=[N-])cc(Nc2ncnc3ccsc23)c1 [Example 71, N-(3-Azido-5-methoxyphenyl)thieno[3,2-d]pyrimidin-4-amine] | 92
32 | COc1cc(Nc2ncnc3ccsc23)cc(N(C)C)c1 [Example 69, N-(3-Dimethylamino-5-methoxyphenyl)thieno[3,2-d]pyrimidin-4-amine] | 41

System: human hepatocellular carcinoma cell line SNU398
Test: Inhibition of cell proliferation (GI50) in SNU398 cells
Type: cell-based
Conditions: SNU-398, Table IV, read-out: GI50 in Multi-Cancer Cells SNU398
Experimental: as §2, §3, §4
(§5) Several compounds were tested in multi cancer cell lines, including human breast cancer cell lines T-47D, MX-1, SKBR3 and MDAMB435, human hepatocellular carcinoma cell line SNU398, human colon carcinoma cell line HCT116, human sarcoma cell line MES-SA and multi-drug resistant (MDR) human sarcoma cell line MES-SA/ADR, murine leukemia cell line P388 and multi-drug resistant (MDR) murine leukemia cell line P388ADR, and the data are summarized in Table IV.

Row | SMILES | GI50 [nM]
33 | COc1cc(N=[N+]=[N-])cc(Nc2ncnc3ccsc23)c1 [Example 71, N-(3-Azido-5-methoxyphenyl)thieno[3,2-d]pyrimidin-4-amine] | 305
34 | COc1cc(Nc2ncnc3ccsc23)cc(N(C)C)c1 [Example 69, N-(3-Dimethylamino-5-methoxyphenyl)thieno[3,2-d]pyrimidin-4-amine] | 276

System: human colon carcinoma cell line HCT116
Test: Inhibition of cell proliferation (GI50) in HCT116 cells
Type: cell-based
Conditions: HCT-116, Table IV, read-out: GI50 in Multi-Cancer Cells HCT116
Experimental: as §2, §3, §4, §5

Row | SMILES | GI50 [nM]
35 | COc1cc(N=[N+]=[N-])cc(Nc2ncnc3ccsc23)c1 [Example 71, N-(3-Azido-5-methoxyphenyl)thieno[3,2-d]pyrimidin-4-amine] | 300
36 | COc1cc(Nc2ncnc3ccsc23)cc(N(C)C)c1 [Example 69, N-(3-Dimethylamino-5-methoxyphenyl)thieno[3,2-d]pyrimidin-4-amine] | 300

System: human breast cancer cell line SKBR3
Test: Inhibition of cell proliferation (GI50) in SKBR3 cells
Type: cell-based
Conditions: SK-BR-3, Table IV, read-out: GI50 in Multi-Cancer Cells SKBR3
Experimental: as §2, §3, §4, §5

Row | SMILES | GI50 [nM]
37 | COc1cc(N=[N+]=[N-])cc(Nc2ncnc3ccsc23)c1 [Example 71, N-(3-Azido-5-methoxyphenyl)thieno[3,2-d]pyrimidin-4-amine] | 200
38 | COc1cc(Nc2ncnc3ccsc23)cc(N(C)C)c1 [Example 69, N-(3-Dimethylamino-5-methoxyphenyl)thieno[3,2-d]pyrimidin-4-amine] | 100

System: human sarcoma cell line MES-SA
Test: Inhibition of cell proliferation (GI50) in MES-SA cells
Type: cell-based
Conditions: Table IV, read-out: GI50 in Multi-Cancer Cells MES-SA
Experimental: as §2, §3, §4, §5

Row | SMILES | GI50 [nM]
39 | COc1cc(N=[N+]=[N-])cc(Nc2ncnc3ccsc23)c1 [Example 71, N-(3-Azido-5-methoxyphenyl)thieno[3,2-d]pyrimidin-4-amine] | 385
40 | COc1cc(Nc2ncnc3ccsc23)cc(N(C)C)c1 [Example 69, N-(3-Dimethylamino-5-methoxyphenyl)thieno[3,2-d]pyrimidin-4-amine] | 600

System: multi-drug resistant (MDR) human sarcoma cell line MES-SA/ADR
Test: Inhibition of cell proliferation (GI50) in MES-SA/ADR cells
Type: cell-based
Conditions: Table IV, read-out: GI50 in Multi-Cancer Cells MES-SA/ADR
Experimental: as §2, §3, §4, §5

Row | SMILES | GI50 [nM]
41 | COc1cc(N=[N+]=[N-])cc(Nc2ncnc3ccsc23)c1 [Example 71, N-(3-Azido-5-methoxyphenyl)thieno[3,2-d]pyrimidin-4-amine] | 796
42 | COc1cc(Nc2ncnc3ccsc23)cc(N(C)C)c1 [Example 69, N-(3-Dimethylamino-5-methoxyphenyl)thieno[3,2-d]pyrimidin-4-amine] | 520

System: murine leukemia cell line P388
Test: Inhibition of cell proliferation (GI50) in P388 cells
Type: cell-based
Conditions: Mus musculus, Table IV, read-out: GI50 in Multi-Cancer Cells P388
Experimental: as §2, §3, §4, §5

Row | SMILES | GI50 [nM]
43 | COc1cc(N=[N+]=[N-])cc(Nc2ncnc3ccsc23)c1 [Example 71, N-(3-Azido-5-methoxyphenyl)thieno[3,2-d]pyrimidin-4-amine] | 218
44 | COc1cc(Nc2ncnc3ccsc23)cc(N(C)C)c1 [Example 69, N-(3-Dimethylamino-5-methoxyphenyl)thieno[3,2-d]pyrimidin-4-amine] | 381

System: multi-drug resistant (MDR) murine leukemia cell line P388ADR
Test: Inhibition of cell proliferation (GI50) in P388/ADR cells
Type: cell-based
Conditions: Mus musculus, Table IV, read-out: GI50 in Multi-Cancer Cells P388/ADR
Experimental: as §2, §3, §4, §5

Row | SMILES | GI50 [nM]
45 | COc1cc(N=[N+]=[N-])cc(Nc2ncnc3ccsc23)c1 [Example 71, N-(3-Azido-5-methoxyphenyl)thieno[3,2-d]pyrimidin-4-amine] | 157
46 | COc1cc(Nc2ncnc3ccsc23)cc(N(C)C)c1 [Example 69, N-(3-Dimethylamino-5-methoxyphenyl)thieno[3,2-d]pyrimidin-4-amine] | 249
